# What was measured:
# line DC-3F/AD [1] = assay: Cytotoxicity (Microculture Tetrazolium Assay): reversal of resistance to actinomycin D, line DC-3F/AD; type: cell-based, Chinese hamster; conditions: 4 days
# Excerpt: The pharmacological study of the compounds of the present invention consisted first of all in an evaluation in vitro carried out on resistant cells. The parameter measured is the cytotoxicity of the antitumour drug, quantified in the absence and in the presence of the reversing compound.
# The cells are distributed on microplates and exposed to the cytotoxic compounds (actinomycin D for line DC-3F/AD and adriamycin for line KB-Al) at 9 concentrations (2 by 2 series dilutions). The compounds tested for their capacity to reverse MDR are added at the same time as the cytotoxic agent.
# The cells are then incubated for 4 days. […] The results are expressed as a reversion factor (RF): PG,29 [formula]
# line DC-3F/AD [2] = assay: Flow cytometry: intracellular accumulation of adriamycin by cells of the line DC-3F/AD; type: cell-based, Chinese hamster; conditions: ADR 50 μM, 5 hours
# Excerpt: Also measured was the effect of the compounds on the intracellular concentration of the cytotoxic agent. In effect, the known compounds for reversing MDR act by increasing the intracellular concentration of cytotoxic agent. This effect is the consequence of inhibiting the action of gP 170 which is responsible for the efflux of the drug.
# By measuring that fluorescence, it is thus possible to obtain a relative measurement of the intracellular concentration of ADR.
# The cells 500×10^3 per ml were exposed simultaneously to ADR at a fixed concentration (50 μM) and to the tested compounds at various concentrations. After 5 hours' incubation, the intracellular accumulation of ADR was evaluated by FCM. […] The analysis of each of the samples was carried out on a total of 10,000 cells at a rate of 1,000 cells per second.
# The results were presented in the form of linear histograms of the intracellular ADR fluorescence.
# Expression of the results: for each of the histograms the mean fluorescence per channel (MEAN) was determined by the information system of the apparatus. For all experiments:
# a negative control (cells without ADR) fixed the autofluorescence threshold.
# a positive control (cells with ADR) determined the MEAN value=MN1.
# the "test" tubes (cells with ADR and with compound) were used to determine, for each of the compounds and at each of the concentrations, the MEAN values=MN2.
# The results are expressed in the form of variations from the mean fluorescence obtained for each of the "test" tubes (MN2) in relation to the mean fluorescence obtained with the positive control (MNl): VAR-MEAN=MN2-MN1. The parameter expressed is thus the increase in ADR fluorescence in the presence of the tested compounds.
SMILES,Reversion factors (cytotoxicity) with the line DC-3F/AD (line DC-3F/AD [1]; 0.5 μM compound),Reversion factors (cytotoxicity) with the line DC-3F/AD (line DC-3F/AD [1]; 1 μM compound),Reversion factors (cytotoxicity) with the line DC-3F/AD (line DC-3F/AD [1]; 5 μM compound),"VAR-MEAN (increase in ADR fluorescence), line DC-3F/AD (line DC-3F/AD [2]; 1.0 μM compound)","VAR-MEAN (increase in ADR fluorescence), line DC-3F/AD (line DC-3F/AD [2]; 5.0 μM compound)","VAR-MEAN (increase in ADR fluorescence), line DC-3F/AD (line DC-3F/AD [2]; 10 μM compound)","VAR-MEAN (increase in ADR fluorescence), line DC-3F/AD (line DC-3F/AD [2]; […] compound)"
"C=CCNc1nc(NCC=C)nc(NCCN2CCC(NC3c4ccccc4CCc4ccccc43)CC2)n1 [Example 12, 2,4-diallylamino-6-{2-[4-(10,11-dihydro-5H-dibenzo[a,d]cyclohepten-5-ylamino)piperidin-1-yl]ethylamino}-1,3,5-triazine]",0.9,0.9,64,5.4,10.4,18.3,10.3
"C=CCNc1nc(NCC=C)nc(N2CCC(NCC3c4ccccc4-c4ccccc43)CC2)n1 [Example 13, 2,4-diallylamino-6-{4-[(fluoren-9-yl)methylamino]piperidin-1-yl}-1,3,5-triazine]",2.1,7.1,170,8.1,19.6,23.2,12.0
"CNc1nc(NC)nc(N2CCC(NCC3c4ccccc4CCc4ccccc43)CC2)n1 [Example 14, 2,4-dimethylamino-6-{4-[(10,11-dihydro-5H-dibenzo[a,d]cyclohepten-5-yl)methylamino]piperidin-1-yl}-1,3,5-triazine]",1.3,7.8,187,12.3,29.4,30.6,14.5
"C=CCNc1nc(NCC=C)nc(NCCN2CCC(NCC3c4ccccc4CCc4ccccc43)CC2)n1 [Example 15, 2,4-diallylamino-6-(2-[4-(10,11-dihydro-5H-dibenzo-[a,d]cyclohepten-5-ylmethylamino)piperidin-1-yl]ethylamino}-1,3,5-triazine]",0.8,1,120,10.1,13.7,12.4,12.4
"C=CCNc1nc(NCC=C)nc(NCC(O)CN2CCC(NC3c4ccccc4CCc4ccccc43)CC2)n1 (centres unmarked) [Example 16, 2,4-diallylamino-6-{3-[4-(10,11-dihydro-5H-dibenzo[a,d]cyclohepten-5-ylamino)piperidin-1-yl]-2-hydroxypropylamino}-1,3,5-triazine]",1,0.9,1.8,9.9,10.4,12.9,11.8
"C=CCNc1nc(NCC=C)nc(NCC(O)CN2CCC(NCC3c4ccccc4CCc4ccccc43)CC2)n1 (centres unmarked) [Example 17, 2,4-diallylamino-6-{3-[4-(10,11-dihydro-5H-dibenzo[a,d]cyclohepten-5-ylmethylamino)piperidin-1-yl]-2-hydroxypropylamino}-1,3,5-triazine]",0.8,0.8,1.1,9.4,10.5,12.6,11.0
"C=CCNc1nc(N)nc(N2CCC(NCC3c4ccccc4CCc4ccccc43)CC2)n1 [Example 18, 2-allylamino-4-amino-6-{4-[(10,11-dihydro-5H-dibenzo[a,d]cyclohepten-5-yl)methylamino]piperidin-1-yl}-1,3,5-triazine]",1.2,3,421,5.5,6.7,11.0,7.4
"C=CCNc1nc(NCC=C)nc(N2CCC(CNC3c4ccccc4CCc4ccccc43)CC2)n1 [Example 23, 2,4-diallylamino-6-{4-[(10,11-dihydro-5H-dibenzo[a,d]cyclohepten-5-yl)aminomethyl]piperidin-1-yl}-1,3,5-triazine]",–,1.4,173,10.0,14.0,20.5,14.6
"C=CCNc1nc(NCC=C)nc(N2CCN(NCC3c4ccccc4CCc4ccccc43)CC2)n1 [Example 24, 2,4-diallylamino-6-{4-[(10,11-dihydro-5H-dibenzo[a,d]cyclohepten-5-yl)methylamino]piperazin-1-yl}-1,3,5-triazine]",2.5,14,329,12.8,21.1,28.2,16.9
"C=CCNc1nc(NCC=C)nc(N2CCN(CC3c4ccccc4CCc4ccccc43)CC2)n1 [Example 25, 2,4-diallylamino-6-{4-[(10,11-dihydro-5H-dibenzo[a,d]cyclohepten-5-yl)methyl]piperazin-1-yl}-1,3,5-triazine]",–,13,464,9.9,17.6,24.5,14.7

# — patent publication US5238936A, “Trisubstituted triazines” (Adir et Compagnie, priority 1991, dated 1993)
